Assay results as given in patent US6057326A, “Bicyclic 4-aralkylaminopyrimidine derivatives as tyrosine kinase inhibitors” (Pharmacia & Upjohn S.p.A, priority 1996, dated 2000).
Like-named read-outs stand apart in the source and are kept apart here.

Experiments:
[1] = biological target: T1, EGFR (Homo sapiens, UniProt P00533); test: EGFR-Autophosphorylation Assay (AMIKA assay); format: biochemical; conditions: A431 membranes; for inhibition at 1 µM: 1 μM compound; for inhibition at 1 µM / inhibition at 10 µM: EGF-stimulated; for inhibition at 10 µM: 10 μM compound; for IC50: EGF 200 nM pre-treatment
T1 construct: A431 crude membrane extracts as source of the receptor; endogenous in cells; host or cells: A431 human epidermoid carcinoma cells, crude membranes
T1 sequence (P00533 25-1210): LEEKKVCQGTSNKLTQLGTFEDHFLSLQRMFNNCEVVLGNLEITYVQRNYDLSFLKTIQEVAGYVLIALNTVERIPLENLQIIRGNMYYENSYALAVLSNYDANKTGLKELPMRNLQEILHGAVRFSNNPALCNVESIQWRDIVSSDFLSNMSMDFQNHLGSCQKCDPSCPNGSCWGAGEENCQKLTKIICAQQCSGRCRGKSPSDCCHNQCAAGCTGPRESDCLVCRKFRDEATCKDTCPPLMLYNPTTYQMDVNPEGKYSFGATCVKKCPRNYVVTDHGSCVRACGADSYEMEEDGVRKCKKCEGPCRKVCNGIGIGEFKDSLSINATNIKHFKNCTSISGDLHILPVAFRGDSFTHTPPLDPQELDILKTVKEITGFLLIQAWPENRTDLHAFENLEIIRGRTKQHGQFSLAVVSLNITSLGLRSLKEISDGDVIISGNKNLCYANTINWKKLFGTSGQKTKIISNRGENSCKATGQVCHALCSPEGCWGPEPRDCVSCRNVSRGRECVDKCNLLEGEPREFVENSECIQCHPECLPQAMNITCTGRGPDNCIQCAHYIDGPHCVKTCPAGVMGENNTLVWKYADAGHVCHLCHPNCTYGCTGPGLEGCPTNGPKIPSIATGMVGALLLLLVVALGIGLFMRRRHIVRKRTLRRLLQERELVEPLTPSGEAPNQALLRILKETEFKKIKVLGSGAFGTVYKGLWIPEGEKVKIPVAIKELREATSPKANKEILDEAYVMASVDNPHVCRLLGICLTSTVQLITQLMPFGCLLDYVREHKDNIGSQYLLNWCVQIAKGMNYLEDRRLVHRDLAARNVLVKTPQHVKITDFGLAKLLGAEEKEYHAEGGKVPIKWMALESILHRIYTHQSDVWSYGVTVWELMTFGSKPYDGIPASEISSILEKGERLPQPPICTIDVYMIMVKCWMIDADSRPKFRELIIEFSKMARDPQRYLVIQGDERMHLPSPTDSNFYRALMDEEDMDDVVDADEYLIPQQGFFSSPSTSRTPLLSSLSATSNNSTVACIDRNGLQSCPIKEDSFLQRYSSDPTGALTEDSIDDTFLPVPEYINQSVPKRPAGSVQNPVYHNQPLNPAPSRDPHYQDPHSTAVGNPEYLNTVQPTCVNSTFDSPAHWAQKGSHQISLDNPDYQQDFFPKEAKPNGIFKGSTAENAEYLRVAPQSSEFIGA
Procedure: EGFR-Autophosphorylation Assay (AMIKA assay) The EGFR autophosphorylation was assayed using A431 crude membrane extracts as source of the receptor. Membrane purification: Membranes were prepared as reported by A. Levitzky et al. (Methods in Enzymology 201, 347 (1991) with minor modifications and adapting the method to the A431 human epidermoid carcinoma cell line. Briefly, low density cells growing in RPMI 1640 plus 10% foetal calf serum were detached using 1 mM EDTA in phosphate buffer saline (PBS) and lysed in cold Lysing buffer (1 ml/10^6 cells) (20 mM HEPES pH 7.6, 10 mM NaCl, 2 mM EDTA, […], 1 mM PMSF). Cells were homogenized by 10 strokes in Dounce homogenizer. Nuclei and debris were removed by low speed centrifugation. Membranes were pelletized by ultracentrifugation (1 h, 100000×g) and resuspended in cold HNG buffer (50 mM HEPES pH 7.6, 125 mM NaCl, 10% glycerol). Protein concentration, determined by Pierce BCA method, was adjusted to 1.5-2 mg/ml. Aliquots were stored at -80° C. Determination of IC50 : […] The reaction was stopped with […] solution. The samples were heated 5 min at 95° C. and submitted to SDS-PAGE (7.5% acrylamide gel). Gels were fixed in 40% methanol:10% acetic acid for 1 h and washed overnight with 20% methanol:7% acetic acid. After 15 min in 50% methanol:2% glycerol gels were dried and exposed overnight. Bands corresponding to EGFR were excised from the gels and counted in a β-counter.

[2] = tested on: EGF-induced tyrosine phosphorylation in A431 cells; test: Inhibition of cellular tyrosine autophosphorylation (VAP assay); format: cell-based; conditions: Homo sapiens, A-431, 10 min, read-out: VAP IC50
Procedure: Inhibition of cellular tyrosine autophosphorylation (VAP assay)
EGF is able to induce the phosphorylation in tyrosine of a specific set of intracellular proteins including EGFR itself. This increase in tyrosine phosphorylation was measured using the Vectastain-ABC-AP kit (Vector Laboratories) following the manufacturer's instructions. Briefly, 2×10^4 A431 cells per well were plated into a microtiter plate and incubated for 3 days at 37° C./5% CO2 until the cultures reached confluency. Cell monolayers were washed with PBS and covered with fresh medium containing 0.1 bovine serum albumin (BSA). Serial dilution of test compounds were added 2 h before the addition of 100 ng/ml EGF; after 10 min stimulation the culture medium was withdrawn, cells were washed 2 times with PBS and fixed for 10 min with cold methanol (-20° C.). After fixation […] of blocking solution (3% BSA in PBS, 0.2% Tween 20, 1% normal horse serum) were added for 1 h at 37° C. Blocking solution was replaced with 3% BSA in PBS containing the antiphosphotyrosine antibody 4G10 (UBI) diluted 1:30000 and incubated for 1 h. […] Reaction was developed for 30 min in the dark and the plates were read at 405 nm.

[3] = tested on: A431 cells; test: SRB-Antiproliferative assay (A431 assay); format: cell-based; conditions: Homo sapiens, A-431, 72 h, read-out: A431 IC50
Procedure: SRB-Antiproliferative assay (A431 assay)
A431 cells were seeded into 96-well microtiter plates (5000 cells/cm^2) and incubated overnight at 37° C./5% CO2. Compounds dissolved in DMSO were added in serial dilution and plates were incubated for 3 days at 37° C./5% CO2. Cells were fixed with cold TCA (10% final concentration) and stained with 0.4% Sulforhodamine B dye in 1% acetic acid for 30 min.

Row | IC50 ([2]; A431 cells, 100 ng/ml EGF, 10 min stimulation) | IC50 ([3]; A431 cells, 3 days, SRB) | SMILES | inhibition at 1 µM [1] | inhibition at 10 µM [1] | IC50 [1] | IC50 [2] | IC50 [3]
1 | 800 nM | > 1560 nM | COc1cc2ncnc(N[C@H](CO)c3ccccc3)c2cc1OC [FCE 29771, (S)-4-[α-(hydroxymethyl)benzylamino]-6,7dimethoxyquinazoline] | 93.8% | 98.3% | 24 nM |  | 
2 |  |  | COc1cc2ncnc(N[C@H](COC(C)=O)c3ccccc3)c2cc1OC [FCE 29772, (S)-4-[α-(acetoxymethyl)benzylamino]-6,7dimethoxyquinazoline] | 94.9% | 98% | 81 nM | 1310 nM | 5300 nM
